Source: ChEMBL document CHEMBL1201862, “PubChem BioAssay data set” (2004)
Active and inactive are the calls of the source.

Legend:
[1] = inhibition of ARNT PAS-B/TACC3 complex formation – biochemical, AlphaScreen, cherry-picked samples, confirmation (AID 651703); type: functional, Homo sapiens;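 note: His-tagged ARNT PAS-B domain paired with GST-TACC3 E629A dimer coactivator fragment; potency of inhibitors that break up the complex and lower AlphaScreen signal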
[2] = blockers of CRF-binding protein–CRF-R2 complex – cell-based, uHTS hits, 384-well, dose response (AID 651639); type: functional, Homo sapiens; conditions: read-out: IC50_Mean
[3] = target: T1, Corticotropin-releasing factor receptor 2/Corticotropin-releasing factor-binding protein (Homo sapiens, UniProt P24387+Q13324); assay: activators of CRF receptor 2 with binding protein – uHTS hits, confirmation (AID 602473); type: functional; conditions: read-out: EC50_Mean
T1 sequence (Q13324 whole entry): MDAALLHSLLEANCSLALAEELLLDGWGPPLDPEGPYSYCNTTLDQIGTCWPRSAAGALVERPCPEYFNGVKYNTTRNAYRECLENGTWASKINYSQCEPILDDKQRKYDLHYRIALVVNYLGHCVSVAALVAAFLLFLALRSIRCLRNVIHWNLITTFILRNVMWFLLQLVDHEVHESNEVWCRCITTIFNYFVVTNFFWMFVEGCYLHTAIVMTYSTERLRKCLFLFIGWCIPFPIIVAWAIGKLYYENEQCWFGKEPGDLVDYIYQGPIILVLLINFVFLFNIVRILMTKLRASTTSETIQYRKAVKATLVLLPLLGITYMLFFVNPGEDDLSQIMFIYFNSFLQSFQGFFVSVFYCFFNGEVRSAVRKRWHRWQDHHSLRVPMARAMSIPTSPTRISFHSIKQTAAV
T1 sequence (P24387 whole entry): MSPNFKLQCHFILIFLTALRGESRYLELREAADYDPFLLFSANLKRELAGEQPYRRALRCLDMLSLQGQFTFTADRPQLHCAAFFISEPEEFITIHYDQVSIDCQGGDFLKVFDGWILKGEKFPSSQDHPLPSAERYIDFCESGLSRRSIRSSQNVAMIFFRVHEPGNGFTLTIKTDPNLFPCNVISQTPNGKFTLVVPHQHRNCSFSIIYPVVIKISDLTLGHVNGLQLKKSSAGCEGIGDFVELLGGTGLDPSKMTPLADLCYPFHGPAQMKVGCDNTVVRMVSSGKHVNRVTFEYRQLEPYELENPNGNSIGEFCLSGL

[4] = target: T1, Corticotropin-releasing factor receptor 2/Corticotropin-releasing factor-binding protein; assay: Dose Response confirmation of uHTS hits for small molecule antagonists of the CRF-binding protein and CRF-R2 receptor complex.; type: functional; conditions: read-out: IC50_Mean
[5] = target: T2, Sentrin-specific protease 8 (Homo sapiens, UniProt Q96LD8); type: functional
T2 sequence (Q96LD8 whole entry): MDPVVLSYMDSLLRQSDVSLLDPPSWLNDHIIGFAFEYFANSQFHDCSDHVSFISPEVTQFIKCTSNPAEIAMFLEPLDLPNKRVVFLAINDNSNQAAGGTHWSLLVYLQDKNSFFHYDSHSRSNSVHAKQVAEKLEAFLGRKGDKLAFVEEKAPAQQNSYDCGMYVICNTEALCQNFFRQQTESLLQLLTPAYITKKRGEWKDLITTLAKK

[6] = bead-based luminescence quenchers, dual-tagged ARNT – biochemical, AlphaScreen, cherry-pick, artefact control for ARNT-TACC3 interaction inhibitor project, dose response (AID 651705); type: functional;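 note: AlphaScreen bead proximity signal that flags compounds interfering with the detection technology; potency reflects signal decrease which marks the compound as an assay artifact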
[7] = target: T2, Sentrin-specific protease 8; type: functional; remark: listed apart in the source
[8] = target: Adenosylmethionine-8-amino-7-oxononanoate aminotransferase (Mycobacterium tuberculosis, UniProt P9WQ81); assay: Mycobacterium tuberculosis BioA enzyme inhibitor Measured in Biochemical System Using Plate Reader - 2163-02_Inhibitor_Dose_CherryPick_Activity.; type: functional, Mycobacterium tuberculosis UT205
[9] = target: T3, ATP-dependent translocase ABCB1 (Homo sapiens, UniProt P08183); assay: P-gp JC-1 efflux blockade concentration-response – Jurkat-DNR cells, flow cytometry, set 2, dose response (AID 504569); type: functional; conditions: read-out: EC50_MICROM_;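 note: potency of pump inhibitors that raise cellular JC-1 green fluorescence up to the nicardipine level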
[10] = target: T3, ATP-dependent translocase ABCB1; assay: inhibition of BCRP-mediated JC-1 efflux – Ig-MXP3 cells, flow cytometry, set 2, dose response (AID 504566); type: functional; conditions: read-out: EC50_MICROM_;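 note: flow cytometry median green fluorescence of retained JC-1 dye; potency of efflux pump inhibition measured as rising substrate retention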

T3 sequence (P08183 whole entry): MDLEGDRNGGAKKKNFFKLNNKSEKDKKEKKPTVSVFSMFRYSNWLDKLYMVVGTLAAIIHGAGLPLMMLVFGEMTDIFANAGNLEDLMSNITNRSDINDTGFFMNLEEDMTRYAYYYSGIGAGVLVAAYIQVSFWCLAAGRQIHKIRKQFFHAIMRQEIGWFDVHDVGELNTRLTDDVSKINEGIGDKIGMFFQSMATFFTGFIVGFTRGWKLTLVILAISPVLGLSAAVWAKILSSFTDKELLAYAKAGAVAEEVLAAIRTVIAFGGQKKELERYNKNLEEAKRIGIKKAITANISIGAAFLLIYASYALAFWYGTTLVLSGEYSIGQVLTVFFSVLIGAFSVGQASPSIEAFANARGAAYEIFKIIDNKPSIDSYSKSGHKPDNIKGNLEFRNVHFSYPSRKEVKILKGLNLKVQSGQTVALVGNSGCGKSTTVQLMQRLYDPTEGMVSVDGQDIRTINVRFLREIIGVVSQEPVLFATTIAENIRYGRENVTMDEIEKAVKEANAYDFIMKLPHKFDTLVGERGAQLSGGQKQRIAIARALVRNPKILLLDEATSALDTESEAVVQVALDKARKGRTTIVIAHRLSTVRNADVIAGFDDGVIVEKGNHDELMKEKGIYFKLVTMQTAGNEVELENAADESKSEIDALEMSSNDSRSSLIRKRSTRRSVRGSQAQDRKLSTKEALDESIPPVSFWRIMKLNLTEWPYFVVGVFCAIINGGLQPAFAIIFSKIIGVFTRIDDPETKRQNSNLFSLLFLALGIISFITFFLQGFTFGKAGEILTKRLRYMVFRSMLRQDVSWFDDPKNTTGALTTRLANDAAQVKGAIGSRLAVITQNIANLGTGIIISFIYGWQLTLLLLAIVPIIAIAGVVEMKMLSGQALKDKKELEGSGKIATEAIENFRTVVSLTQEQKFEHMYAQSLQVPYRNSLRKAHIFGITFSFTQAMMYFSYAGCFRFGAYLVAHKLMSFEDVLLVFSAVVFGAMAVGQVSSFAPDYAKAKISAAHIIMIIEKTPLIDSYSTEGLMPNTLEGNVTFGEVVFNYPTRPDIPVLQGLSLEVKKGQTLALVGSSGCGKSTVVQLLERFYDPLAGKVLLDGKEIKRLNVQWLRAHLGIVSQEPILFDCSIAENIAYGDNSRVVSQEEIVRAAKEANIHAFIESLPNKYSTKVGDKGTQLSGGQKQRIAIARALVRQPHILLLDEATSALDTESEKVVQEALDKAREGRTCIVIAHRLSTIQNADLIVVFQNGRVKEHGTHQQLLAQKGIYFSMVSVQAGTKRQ
Sequence of Adenosylmethionine-8-amino-7-oxononanoate aminotransferase (P9WQ81 whole entry): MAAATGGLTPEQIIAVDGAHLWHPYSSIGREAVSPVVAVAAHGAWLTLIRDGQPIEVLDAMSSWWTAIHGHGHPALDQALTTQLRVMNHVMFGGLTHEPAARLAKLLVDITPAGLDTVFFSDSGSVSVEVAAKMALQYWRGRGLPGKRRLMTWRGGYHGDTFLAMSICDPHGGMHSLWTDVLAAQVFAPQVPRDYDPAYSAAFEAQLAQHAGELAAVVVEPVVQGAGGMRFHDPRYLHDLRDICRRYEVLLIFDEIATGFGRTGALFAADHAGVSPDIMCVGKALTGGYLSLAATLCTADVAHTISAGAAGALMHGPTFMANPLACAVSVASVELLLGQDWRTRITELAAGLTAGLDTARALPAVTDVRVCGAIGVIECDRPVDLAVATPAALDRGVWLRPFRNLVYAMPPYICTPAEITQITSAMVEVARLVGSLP

For `C/C=C/c1ccc([C@H]2[C@@H](CO)N(Cc3ccccn3)[C@@H]2CNC(C)=O)cc1`, the AC50 [1] was 93.3 µM (active).

In the case of `O=C(Cc1ccccc1)NCC(=O)OC(c1ccccc1)c1ccccc1`, the IC50 [2] is reported as > 20 µM (inactive), the EC50 [3] is reported as > 53 µM (inactive) and the IC50 [4] is reported as 18.9 µM (active).

For `CN1CC[C@@]2(C)c3cc(O)ccc3N(C)[C@@H]12`, the IC50 [5] was 8.51 µM (active), the AC50 [6] was 97.2 µM (active) and the IC50 [7] was 3.53 µM (active).

For `CC(=O)c1ccc(C(=O)NC2CCCN(Cc3ccccc3F)C2)s1` (stereo not given), the AC50 [8] was 4.26 µM (active).

With `O=C(c1ccccc1)N1CCN(c2cc(Cl)nc3cc(-c4cccc(Cl)c4)nn23)CC1` the EC50 [9] was 3.98 µM (active) and the EC50 [10] was 1.8 µM (active).
